# What was measured:
# HL-60 (TB) = test: NCI 60 five-dose screening, HL-60 (TB); assay type: cell-based, human; conditions: HL-60 (TB) (Leukemia), 48 h
# OVCAR-3 = test: NCI 60 five-dose screening, OVCAR-3; assay type: cell-based, human
# NCI/ADR-RES = test: NCI 60 five-dose screening, NCI/ADR-RES; assay type: cell-based, human; conditions: NCI/ADR-RES (Ovarian Cancer), 48 h
# SN12C = test: NCI 60 five-dose screening, SN12C; assay type: cell-based, human; conditions: SN12C (Renal Cancer), 48 h
# HS578T = test: NCI 60 five-dose screening, HS578T; assay type: cell-based, human; conditions: HS578T (Breast Cancer), 48 h
# U251 = test: NCI 60 five-dose screening, U251
# Procedure: (§1) The National Cancer Institute's Developmental Therapeutic preclinical 60 human cancer cell lines were used for an in vitro screen. […] The one-dose and five-dose experiments were conducted according to standard NCI protocols.
# (§2) The human tumor cell lines of the cancer screening panel are grown in RPMI 1640 medium containing 5% fetal bovine serum and 2 mM L-glutamine. For a typical screening experiment, cells are inoculated into 96 well microtiter plates in 100 μL at plating densities ranging from 5,000 to 40,000 cells/well depending on the doubling time of individual cell lines. After cell inoculation, the microtiter plates are incubated at 37° C., 5% CO2, 95% air and 100% relative humidity for 24 h prior to addition of experimental drugs.
# (§3) After 24 h, two plates of each cell line are fixed in situ with TCA, to represent a measurement of the cell population for each cell line at the time of drug addition (Tz). […]
# (§4) Following drug addition, the plates are incubated for an additional 48 h at 37° C., 5% CO2, 95% air, and 100% relative humidity. […] Bound stain is subsequently solubilized with 10 mM trizma base, and the absorbance is read on an automated plate reader at a wavelength of 515 nm. […] Using the seven absorbance measurements [time zero, (Tz), control growth, (C), and test growth in the presence of drug at the five concentration levels (Ti)], the percentage growth is calculated at each of the drug concentrations levels. Percentage growth inhibition is calculated as: [(Ti−Tz)/(C−Tz)]×100 for concentrations for which Ti>/=Tz [(Ti−Tz)/Tz]×100 for concentrations for which Ti<Tz.
# (§5) Three dose response parameters are calculated for each experimental agent. […] The drug concentration resulting in total growth inhibition (TGI) is calculated from Ti=Tz. […] Values are calculated for each of these three parameters if the level of activity is reached; however, if the effect is not reached or is exceeded, the value for that parameter is expressed as greater or less than the maximum or minimum concentration tested.
# A498 = test: NCI 60 five-dose screening, A498
# Procedure: (§6) The one-dose and five-dose experiments were conducted according to standard NCI protocols.
# as §2
# (§7) After 24 h, two plates of each cell line are fixed in situ with TCA, to represent a measurement of the cell population for each cell line at the time of drug addition (Tz). Experimental drugs are solubilized in dimethyl sulfoxide at 400-fold the desired final maximum test concentration and stored frozen prior to use. […]
# as §4, §5
# ACHN = test: NCI 60 five-dose screening, ACHN; conditions: 48 h
# Procedure: as §6, §2, §7, §4, §5
# 786.0 = test: NCI 60 five-dose screening, 786.0
# Procedure: as §6, §2, §7, §4, §5
# HOP-62 = test: NCI 60 five-dose screening, HOP-62
# Procedure: as §6, §2, §7, §4, §5
# SNB-19 = test: NCI 60 five-dose screening, SNB-19
# Procedure: as §1, §2, §3, §4, §5
# IGROV1 = test: NCI 60 five-dose screening, IGROV1
# Procedure: as §1, §2, §3, §4, §5
# BT-549 = test: NCI 60 five-dose screening, BT-549
# Procedure: as §1, §2, §3, §4, §5
# HCT-116 = test: NCI 60 five-dose screening, HCT-116
# Procedure: as §1, §2, §3, §4, §5
# UACC-62 = test: NCI 60 five-dose screening, UACC-62
# Procedure: as §1, §2, §3, §4, §5
# SK-OV-3 = test: NCI 60 five-dose screening, SK-OV-3
# Procedure: as §6, §2, §7, §4, §5
# RXF 393 = test: NCI 60 five-dose screening, RXF 393
# Procedure: as §6, §2
# After 24 h, two plates of each cell line are fixed in situ with TCA, to represent a measurement of the cell population for each cell line at the time of drug addition (Tz). Experimental drugs are solubilized in dimethyl sulfoxide at 400-fold the desired final maximum test concentration and stored frozen prior to use. At the time of drug addition, an aliquot of frozen concentrate is thawed and diluted to twice the desired final maximum test concentration with complete medium containing 50 μg/ml gentamicin. Additional four, 10-fold or ½ log serial dilutions are made to provide a total of five drug concentrations plus control. Aliquots of 100 μl of these different drug dilutions are added to the appropriate microtiter wells already containing 100 μl of medium, resulting in the required final drug concentrations.
# Following drug addition, the plates are incubated for an additional 48 h at 37° C., 5% CO2, 95% air, and 100% relative humidity. For adherent cells, the assay is terminated by the addition of cold TCA. Cells are fixed in situ by the gentle addition of 50 μl of cold 50% (w/v) TCA (final concentration, 10% TCA) and incubated for 60 minutes at 4° C. […] Bound stain is subsequently solubilized with 10 mM trizma base, and the absorbance is read on an automated plate reader at a wavelength of 515 nm. […] Using the seven absorbance measurements [time zero, (Tz), control growth, (C), and test growth in the presence of drug at the five concentration levels (Ti)], the percentage growth is calculated at each of the drug concentrations levels. Percentage growth inhibition is calculated as: [(Ti−Tz)/(C−Tz)]×100 for concentrations for which Ti>/=Tz [(Ti−Tz)/Tz]×100 for concentrations for which Ti<Tz.
# as §5
# NCI-H522 = test: NCI 60 five-dose screening, NCI-H522
# Procedure: as §1, §2, §3, §4, §5
# COLO 205 = test: NCI 60 five-dose screening, COLO 205
# Procedure: as §1, §2, §3, §4, §5
# LOX IMVI = test: NCI 60 five-dose screening, LOX IMVI; conditions: 48 h
# Procedure: as §1, §2, §3, §4, §5
# UACC-257 = test: NCI 60 five-dose screening, UACC-257
# Procedure: as §1, §2, §3, §4, §5
# RPMI-8226 = test: NCI 60 five-dose screening, RPMI-8226
# Procedure: as §1, §2, §3, §4, §5
# SK-MEL-28 = test: NCI 60 five-dose screening, SK-MEL-28
# Procedure: as §1, §2, §3, §4, §5
# MDA-MB-435 = test: NCI 60 five-dose screening, MDA-MB-435
# Procedure: as §1, §2, §3, §4, §5
# MDA-MB-231/ATCC = test: NCI 60 five-dose screening, MDA-MB-231/ATCC
# Procedure: as §1, §2, §3, §4, §5
# [1] = RXF 393 (Renal Cancer), five-dose, 48 h
structure (smiles),measurement,setting,value
"COc1ccc(SC2c3cc(OC)c(OC)cc3Oc3nc(N)c(C#N)c(N)c32)cc1 (stereo not drawn) [Compound 1, 2,4-diamino-7,8-dimethoxy-5-((4-methoxyphenyl)thio)-5H-chromeno[2,3-b]pyridine-3-carbonitrile]",TGI,HL-60 (TB),1270 nM
same,GI50,HL-60 (TB); Homo sapiens,340 nM
same,CC50,"OVCAR-3; Homo sapiens, OVCAR-3, 48 h, read-out: LC50",5030 nM
same,GI50,"OVCAR-3; Homo sapiens, OVCAR-3 (Ovarian Cancer), five-dose, 48 h",1060 nM
same,TGI,"OVCAR-3; OVCAR-3 (Ovarian Cancer), five-dose, 48 h",2310 nM
same,GI50,NCI/ADR-RES; Homo sapiens,1790 nM
same,TGI,NCI/ADR-RES,3690 nM
same,GI50,SN12C; Homo sapiens,1060 nM
same,TGI,SN12C,2490 nM
same,TGI,HS578T,4160 nM
same,GI50,"HS578T; Homo sapiens, Hs-578T",1800 nM
same,GI50,"U251; Homo sapiens, U-251, 48 h",950 nM
same,CC50,"U251; Homo sapiens, U-251, 48 h, read-out: LC50",4830 nM
same,TGI,"U251; U251 (CNS Cancer), five-dose, 48 h",2180 nM
same,TGI,"A498; A498 (Renal Cancer), five-dose, 48 h",2850 nM
same,GI50,"A498; Homo sapiens, A498, 48 h",1420 nM
same,CC50,"A498; Homo sapiens, A498, 48 h, read-out: LC50",5730 nM
same,TGI,"ACHN; ACHN (Renal Cancer), five-dose",3120 nM
same,GI50,"ACHN; Homo sapiens, ACHN",1740 nM
same,CC50,"ACHN; Homo sapiens, ACHN, read-out: LC50",5580 nM
same,TGI,"786.0; 786.0 (Renal Cancer), five-dose, 48 h",1730 nM
same,GI50,"786.0; Homo sapiens, 786-0, 48 h",490 nM
same,CC50,"786.0; Homo sapiens, 786-0, 48 h, read-out: LC50",4200 nM
same,TGI,"HOP-62; HOP-62 (Non-small cell Lung), five-dose, 48 h",3090 nM
same,GI50,"HOP-62; Homo sapiens, HOP-62, 48 h",1700 nM
same,CC50,"HOP-62; Homo sapiens, HOP-62, 48 h, read-out: LC50",5610 nM
same,GI50,"SNB-19; Homo sapiens, SNB-19, 48 h",1320 nM
same,CC50,"SNB-19; Homo sapiens, SNB-19, 48 h, read-out: LC50",5300 nM
same,TGI,"SNB-19; SNB-19 (CNS Cancer), five-dose, 48 h",2640 nM
same,GI50,"IGROV1; Homo sapiens, IGROV-1, 48 h",760 nM
same,CC50,"IGROV1; Homo sapiens, IGROV-1, 48 h, read-out: LC50",6420 nM
same,TGI,"IGROV1; IGROV1 (Ovarian Cancer), five-dose, 48 h",2370 nM
same,TGI,"BT-549; BT-549 (Breast Cancer), five-dose, 48 h",2190 nM
same,GI50,"BT-549; Homo sapiens, BT-549, 48 h",1020 nM
same,CC50,"BT-549; Homo sapiens, BT-549, 48 h, read-out: LC50",4720 nM
same,TGI,"HCT-116; HCT-116 (Colon Cancer), five-dose, 48 h",2160 nM
same,GI50,"HCT-116; Homo sapiens, HCT-116, 48 h",680 nM
same,CC50,"HCT-116; Homo sapiens, HCT-116, 48 h, read-out: LC50",5340 nM
same,GI50,"UACC-62; Homo sapiens, UACC-62, 48 h",440 nM
same,CC50,"UACC-62; Homo sapiens, UACC-62, 48 h, read-out: LC50",4300 nM
same,TGI,"UACC-62; UACC-62 (Melanoma), five-dose, 48 h",1730 nM
same,GI50,"SK-OV-3; Homo sapiens, SK-OV-3, 48 h",1810 nM
same,CC50,"SK-OV-3; Homo sapiens, SK-OV-3, 48 h, read-out: LC50",5660 nM
same,TGI,"SK-OV-3; SK-OV-3 (Ovarian Cancer), five-dose, 48 h",3200 nM
same,GI50,"RXF 393; Homo sapiens, RXF 393, 48 h, RXF 393 (Renal Cancer), five-dose, 48 h",450 nM
same,CC50,"RXF 393; Homo sapiens, RXF 393, 48 h, read-out: LC50",4520 nM
same,GI50,RXF 393; [1],740 nM
same,TGI,RXF 393; [1],2010 nM
same,GI50,"NCI-H522; Homo sapiens, NCI-H522, 48 h",1370 nM
same,CC50,"NCI-H522; Homo sapiens, NCI-H522, 48 h, read-out: LC50",5600 nM
same,TGI,"NCI-H522; NCI-H522 (Non-small cell Lung), five-dose, 48 h",2770 nM
same,TGI,"COLO 205; COLO 205 (Colon Cancer), five-dose, 48 h",2650 nM
same,GI50,"COLO 205; Homo sapiens, COLO 205, 48 h",1290 nM
same,CC50,"COLO 205; Homo sapiens, COLO 205, 48 h, read-out: LC50",5430 nM
same,GI50,"LOX IMVI; Homo sapiens, LOX IMVI",580 nM
same,CC50,"LOX IMVI; Homo sapiens, LOX IMVI, read-out: LC50",4370 nM
same,TGI,"LOX IMVI; LOX IMVI (Melanoma), five-dose",1860 nM
same,GI50,"UACC-257; Homo sapiens, UACC-257, 48 h",1870 nM
same,CC50,"UACC-257; Homo sapiens, UACC-257, 48 h, read-out: LC50",5900 nM
same,TGI,"UACC-257; UACC-257 (Melanoma), five-dose, 48 h",3320 nM
same,GI50,"RPMI-8226; Homo sapiens, RPMI-8226, 48 h",350 nM
same,CC50,"RPMI-8226; Homo sapiens, RPMI-8226, 48 h, read-out: LC50",> 100000 nM
same,TGI,"RPMI-8226; RPMI-8226 (Leukemia), five-dose, 48 h",1810 nM
same,GI50,"SK-MEL-28; Homo sapiens, SK-MEL-28, 48 h",1470 nM
same,CC50,"SK-MEL-28; Homo sapiens, SK-MEL-28, 48 h, read-out: LC50",5780 nM
same,TGI,"SK-MEL-28; SK-MEL-28 (Melanoma), five-dose, 48 h",2910 nM
same,GI50,"MDA-MB-435; Homo sapiens, MDA-MB-435, 48 h",1500 nM
same,CC50,"MDA-MB-435; Homo sapiens, MDA-MB-435, 48 h, read-out: LC50",5700 nM
same,TGI,"MDA-MB-435; MDA-MB-435 (Melanoma), five-dose, 48 h",2920 nM
same,GI50,"MDA-MB-231/ATCC; Homo sapiens, MDA-MB-231, 48 h",1430 nM
same,CC50,"MDA-MB-231/ATCC; Homo sapiens, MDA-MB-231, 48 h, read-out: LC50",5510 nM
same,TGI,"MDA-MB-231/ATCC; MDA-MB-231/ATCC (Breast Cancer), five-dose, 48 h",2810 nM
